The source made the active and inactive calls. The rule behind the calls is not given here.
Tested on: CCRIS mutagenicity, Ames/micronucleus/aberration tests
Experiment: CCRIS mutagenicity studies
[1] = Test System: AMES SALMONELLA TYPHIMURIUM, Strain/Indicator: TA98, Metabolic Activation: NONE, Method: STANDARD PLATE
[2] = Test System: AMES SALMONELLA TYPHIMURIUM, Strain/Indicator: TA100, Metabolic Activation: NONE, Method: STANDARD PLATE
[3] = Test System: AMES SALMONELLA TYPHIMURIUM, Strain/Indicator: TA102, Metabolic Activation: NONE, Method: STANDARD PLATE
[4] = Test System: AMES SALMONELLA TYPHIMURIUM, Strain/Indicator: TA98, Metabolic Activation: NONE, Method: PREINCUBATION
[5] = Test System: AMES SALMONELLA TYPHIMURIUM, Strain/Indicator: TA100, Metabolic Activation: NONE, Method: PREINCUBATION
[6] = Test System: AMES SALMONELLA TYPHIMURIUM, Strain/Indicator: TA1535, Metabolic Activation: NONE, Method: PREINCUBATION
[7] = Test System: AMES SALMONELLA TYPHIMURIUM, Strain/Indicator: TA1537, Metabolic Activation: NONE, Method: PREINCUBATION

## CCn1cc(C(=O)O)c(=O)c2cc(F)c(N3CCNC(C)C3)c(F)c21 (centres undefined)
[1]
  mutagenic call: inactive; negative
Test System: AMES SALMONELLA TYPHIMURIUM, Strain/Indicator: TA98, Metabolic Activation: RAT, LIVER, S-9, PHENOBARBITAL, Method: STANDARD PLATE
  mutagenic call: inactive; negative
[2]
  mutagenic call: inactive; negative
Test System: AMES SALMONELLA TYPHIMURIUM, Strain/Indicator: TA100, Metabolic Activation: RAT, LIVER, S-9, PHENOBARBITAL, Method: STANDARD PLATE
  mutagenic call: inactive; negative
[3]
  mutagenic call: active; positive
Test System: CHINESE HAMSTER V-79, Strain/Indicator: V-79 (HGPRT)/6-THIOGUANINE, Metabolic Activation: NONE, Method: STANDARD PLATE
  mutagenic call: inactive; negative

## CCCCCCCC/C=C\CCCCCCCC(=O)O
Test System: AMES SALMONELLA TYPHIMURIUM, Strain/Indicator: TA97, Metabolic Activation: HAMSTER, LIVER, S-9, AROCLOR 1254 (10 OR 30%), Method: PREINCUBATION
  mutagenic call: inactive; negative
Test System: AMES SALMONELLA TYPHIMURIUM, Strain/Indicator: TA97, Metabolic Activation: NONE, Method: PREINCUBATION
  mutagenic call: inactive; negative
Test System: AMES SALMONELLA TYPHIMURIUM, Strain/Indicator: TA97, Metabolic Activation: RAT, LIVER, S-9, AROCLOR 1254 (10 OR 30%), Method: PREINCUBATION
  mutagenic call: inactive; negative
Test System: AMES SALMONELLA TYPHIMURIUM, Strain/Indicator: TA98, Metabolic Activation: HAMSTER, LIVER, S-9, AROCLOR 1254 (10 OR 30%), Method: PREINCUBATION
  mutagenic call: inactive; negative
[4]
  mutagenic call: inactive; negative
[1]
  mutagenic call: inactive; negative
Test System: AMES SALMONELLA TYPHIMURIUM, Strain/Indicator: TA98, Metabolic Activation: RAT, LIVER, S-9, AROCLOR 1254 (10 OR 30%), Method: PREINCUBATION
  mutagenic call: inactive; negative
Test System: AMES SALMONELLA TYPHIMURIUM, Strain/Indicator: TA98, Metabolic Activation: RAT, LIVER, S-9, KC 500, Method: PREINCUBATION
  mutagenic call: inactive; negative
Test System: AMES SALMONELLA TYPHIMURIUM, Strain/Indicator: TA98, Metabolic Activation: S-9, PHENOBARBITAL, Method: STANDARD PLATE
  mutagenic call: inactive; negative
Test System: AMES SALMONELLA TYPHIMURIUM, Strain/Indicator: TA100, Metabolic Activation: HAMSTER, LIVER, S-9, AROCLOR 1254 (10 OR 30%), Method: PREINCUBATION
  mutagenic call: inactive; negative
[5]
  mutagenic call: inactive; negative
[2]
  mutagenic call: inactive; negative
Test System: AMES SALMONELLA TYPHIMURIUM, Strain/Indicator: TA100, Metabolic Activation: RAT, LIVER, S-9, AROCLOR 1254 (10 OR 30%), Method: PREINCUBATION
  mutagenic call: inactive; negative
Test System: AMES SALMONELLA TYPHIMURIUM, Strain/Indicator: TA100, Metabolic Activation: RAT, LIVER, S-9, KC 500, Method: PREINCUBATION
  mutagenic call: inactive; negative
Test System: AMES SALMONELLA TYPHIMURIUM, Strain/Indicator: TA100, Metabolic Activation: S-9, PHENOBARBITAL, Method: STANDARD PLATE
  mutagenic call: inactive; negative
Test System: AMES SALMONELLA TYPHIMURIUM, Strain/Indicator: TA1535, Metabolic Activation: HAMSTER, LIVER, S-9, AROCLOR 1254 (10 OR 30%), Method: PREINCUBATION
  mutagenic call: inactive; negative
[6]
  mutagenic call: inactive; negative
Test System: AMES SALMONELLA TYPHIMURIUM, Strain/Indicator: TA1535, Metabolic Activation: NONE, Method: STANDARD PLATE
  mutagenic call: inactive; negative
Test System: AMES SALMONELLA TYPHIMURIUM, Strain/Indicator: TA1535, Metabolic Activation: RAT, LIVER, S-9, AROCLOR 1254 (10 OR 30%), Method: PREINCUBATION
  mutagenic call: inactive; negative
Test System: AMES SALMONELLA TYPHIMURIUM, Strain/Indicator: TA1535, Metabolic Activation: RAT, LIVER, S-9, KC 500, Method: PREINCUBATION
  mutagenic call: inactive; negative
Test System: AMES SALMONELLA TYPHIMURIUM, Strain/Indicator: TA1535, Metabolic Activation: S-9, PHENOBARBITAL, Method: STANDARD PLATE
  mutagenic call: inactive; negative
[7]
  mutagenic call: inactive; negative
Test System: AMES SALMONELLA TYPHIMURIUM, Strain/Indicator: TA1537, Metabolic Activation: NONE, Method: STANDARD PLATE
  mutagenic call: inactive; negative
Test System: AMES SALMONELLA TYPHIMURIUM, Strain/Indicator: TA1537, Metabolic Activation: RAT, LIVER, S-9, KC 500, Method: PREINCUBATION
  mutagenic call: inactive; negative
Test System: AMES SALMONELLA TYPHIMURIUM, Strain/Indicator: TA1537, Metabolic Activation: S-9, PHENOBARBITAL, Method: STANDARD PLATE
  mutagenic call: inactive; negative
Test System: AMES SALMONELLA TYPHIMURIUM, Strain/Indicator: TA1538, Metabolic Activation: NONE, Method: PREINCUBATION
  mutagenic call: inactive; negative
Test System: AMES SALMONELLA TYPHIMURIUM, Strain/Indicator: TA1538, Metabolic Activation: RAT, LIVER, S-9, KC 500, Method: PREINCUBATION
  mutagenic call: inactive; negative
Test System: E. COLI, Strain/Indicator: WP2 UVRA, Metabolic Activation: NONE, Method: PREINCUBATION
  mutagenic call: inactive; negative
Test System: E. COLI, Strain/Indicator: WP2 UVRA, Metabolic Activation: NONE, Method: STANDARD PLATE
  mutagenic call: inactive; negative
Test System: E. COLI, Strain/Indicator: WP2 UVRA, Metabolic Activation: RAT, LIVER, S-9, KC 500, Method: PREINCUBATION
  mutagenic call: inactive; negative
Test System: E. COLI, Strain/Indicator: WP2 UVRA, Metabolic Activation: S-9, PHENOBARBITAL, Method: STANDARD PLATE
  mutagenic call: inactive; negative

## COc1ccc(CN(CCN(C)C)c2ccccn2)cc1
Test System: AMES SALMONELLA TYPHIMURIUM, Strain/Indicator: TA97, Metabolic Activation: NONE, Method: STANDARD PLATE
  mutagenic call: inactive; negative
Test System: AMES SALMONELLA TYPHIMURIUM, Strain/Indicator: TA97, Metabolic Activation: RAT, LIVER, S-9, AROCLOR 1254, Method: STANDARD PLATE
  mutagenic call: inactive; negative
Test System: AMES SALMONELLA TYPHIMURIUM, Strain/Indicator: TA98, Metabolic Activation: HAMSTER, LIVER, S-9, AROCLOR 1254 (10%), Method: PREINCUBATION
  mutagenic call: inactive; negative
[4]
  mutagenic call: inactive; negative
[1]
  mutagenic call: inactive; negative
Test System: AMES SALMONELLA TYPHIMURIUM, Strain/Indicator: TA98, Metabolic Activation: RAT, LIVER, S-9, AROCLOR 1254 (10%), Method: PREINCUBATION
  mutagenic call: inactive; negative
Test System: AMES SALMONELLA TYPHIMURIUM, Strain/Indicator: TA98, Metabolic Activation: RAT, LIVER, S-9, AROCLOR 1254, Method: STANDARD PLATE
  mutagenic call: inactive; negative
Test System: AMES SALMONELLA TYPHIMURIUM, Strain/Indicator: TA100, Metabolic Activation: HAMSTER, LIVER, S-9, AROCLOR 1254 (10%), Method: PREINCUBATION
  mutagenic call: inactive; negative
[5]
  mutagenic call: inactive; negative
[2]
  mutagenic call: inactive; negative
Test System: AMES SALMONELLA TYPHIMURIUM, Strain/Indicator: TA100, Metabolic Activation: RAT, LIVER, S-9, AROCLOR 1254 (10%), Method: PREINCUBATION
  mutagenic call: inactive; negative
Test System: AMES SALMONELLA TYPHIMURIUM, Strain/Indicator: TA100, Metabolic Activation: RAT, LIVER, S-9, AROCLOR 1254, Method: STANDARD PLATE
  mutagenic call: inactive; negative
[3]
  mutagenic call: inactive; negative
Test System: AMES SALMONELLA TYPHIMURIUM, Strain/Indicator: TA102, Metabolic Activation: RAT, LIVER, S-9, AROCLOR 1254, Method: STANDARD PLATE
  mutagenic call: inactive; negative
Test System: AMES SALMONELLA TYPHIMURIUM, Strain/Indicator: TA1535, Metabolic Activation: HAMSTER, LIVER, S-9, AROCLOR 1254 (10%), Method: PREINCUBATION
  mutagenic call: inactive; negative
[6]
  mutagenic call: inactive; negative
Test System: AMES SALMONELLA TYPHIMURIUM, Strain/Indicator: TA1535, Metabolic Activation: RAT, LIVER, S-9, AROCLOR 1254 (10%), Method: PREINCUBATION
  mutagenic call: inactive; negative
Test System: AMES SALMONELLA TYPHIMURIUM, Strain/Indicator: TA1537, Metabolic Activation: HAMSTER, LIVER, S-9, AROCLOR 1254 (10%), Method: PREINCUBATION
  mutagenic call: inactive; negative
[7]
  mutagenic call: inactive; negative
Test System: AMES SALMONELLA TYPHIMURIUM, Strain/Indicator: TA1537, Metabolic Activation: RAT, LIVER, S-9, AROCLOR 1254 (10%), Method: PREINCUBATION
  mutagenic call: inactive; negative
Test System: MOUSE LYMPHOMA, Strain/Indicator: L5178Y (TK+/TK-), Metabolic Activation: NONE, Method: SUSPENSION/PLATE
  mutagenic call: inactive; negative
Test System: MOUSE LYMPHOMA, Strain/Indicator: L5178Y (TK+/TK-), Metabolic Activation: RAT, LIVER, S-9, AROCLOR 1242 AND 1254 (2:1 MIXTURE), Method: SUSPENSION/PLATE
  mutagenic call: active; positive

— PubChem BioAssay AID1259407 (Chemical Carcinogenesis Research Information System (CCRIS), 2018)
